The text below walks through data of ChEMBL document CHEMBL5209562, “Label-free detection of transporter activity via GPCR signalling in living cells: A case for SLC29A1, the equilibrative nucleoside transporter 1” (Sci Rep, 2019).

Each structure is given as a SMILES string.

The assay addresses T1, Equilibrative nucleoside transporter 1 (Homo sapiens, UniProt Q99808).
T1 sequence (Q99808 whole entry): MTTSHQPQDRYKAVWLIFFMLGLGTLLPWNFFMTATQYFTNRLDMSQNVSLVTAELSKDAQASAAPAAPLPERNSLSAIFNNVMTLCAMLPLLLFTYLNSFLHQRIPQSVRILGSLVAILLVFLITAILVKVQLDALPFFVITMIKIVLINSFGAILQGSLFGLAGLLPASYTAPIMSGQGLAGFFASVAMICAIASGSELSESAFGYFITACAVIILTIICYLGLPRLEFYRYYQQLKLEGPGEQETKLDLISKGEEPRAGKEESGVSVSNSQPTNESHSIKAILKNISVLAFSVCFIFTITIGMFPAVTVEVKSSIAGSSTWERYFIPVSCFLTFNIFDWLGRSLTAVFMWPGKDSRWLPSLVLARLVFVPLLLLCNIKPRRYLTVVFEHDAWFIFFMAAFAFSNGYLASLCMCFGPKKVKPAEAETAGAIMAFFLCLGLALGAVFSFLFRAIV
As to the kind of experiment: Inhibition of the equilibrative nucleoside transporter (ENT1, SLC29A1) as assessed by GPCR-mediated changes in cell morphology using the impedance-based transporter activity through receptor activation (TRACT) assay (PubChem AID: 1745861). The format is functional, U2OS.

As a reminder, the IC50 is the concentration needed to halve the response being measured. Higher therefore signals lower potency.

`NC(=O)C1CN(CCCCC(c2ccc(F)cc2)c2ccc(F)cc2)CCN1CC(=O)Nc1c(Cl)cc(N)cc1Cl` (stereo unspecified) [DRAFLAZINE] had an IC50 of 5.3 nM. This lies in the single-digit nanomolar range.
